Results as given in patent US20200384072A1, “THERAPY OF IONIZING RADIATION-INDUCED DISORDERS” (SCK-CEN, priority 2019, published 2020).

How the values were obtained:
Cx43 hemichannels [1] = molecular target: T1, Cx43 hemichannels (Homo sapiens, UniProt P17302); experiment: Extracellular ATP release after irradiation, TIME cells; assay type: cell-based
T1 construct: endogenous in cells; host or cells: TICAE and TIME cells (human endothelial cell lines)
Experimental: Hemichannels are an ATP release pathway and we therefore determined extracellular ATP after irradiation. To that purpose, TICAE and TIME cells were seeded in a 96-well plate at a density of 1×10^5 cells/well and 0.3×10^5 cells/well, respectively, in six to eight biological replicates. Three days later, cells reached 100% confluence. At 30 minutes before irradiation, cells were refreshed with 100 μl medium alone or with medium supplemented with 100 μM TAT-Gap19 (Genosphere Biotechnologies, Paris, France) to block the Cx43 hemichannels. For fractionated irradiation, cells were refreshed with 150 μl medium/well. At different time points after irradiation (1, 6 and 72 h), 1:5 ATP assay mix dissolved in ATP mix dilution buffer (Sigma-Aldrich Co. LCC, Diegem, Belgium) was added to each well. Extracellular ATP release was assessed by measuring the luminescence signal received after oxidation of luciferin and ATP to oxyluciferin and AMP using the CLARIOstar® microplate reader (BMG Labtech, Temse, Belgium). Experiments were corrected for baseline ATP signal in medium in the absence or presence of TAT-Gap19.

Cx43 hemichannels [2] = molecular target: T1, Cx43 hemichannels; experiment: Propidium iodide dye uptake assay after irradiation, TIME cells; assay type: cell-based
Source text: Hemichannel opening was also investigated by dye uptake studies making use of the hemichannel permeable fluorescent tracer propidium iodide (PI; MW 668.4 Da). In addition, dextran fluorescein 10 kDa dye was used to assess membrane integrity and occurrence of cell death. PI stains cells with open hemichannels, late apoptotic and necrotic cells, while dextran fluorescein only stains late apoptotic and necrotic cells. Therefore, PI-positive and dextran fluorescein-negative cells are a measure for hemichannel opening while dextran fluorescein-positive cells are a measure for dead cells.
TICAE and TIME cells were seeded in a 24-well plate at a density of 1.25×10^5 and 1.5×10^5 cells/well, respectively, in six biological replicates. Three days later, cells reached 100% confluence. Thirty minutes before irradiation, cells were refreshed with 1 ml medium alone or with medium supplemented with 100 μM TAT-Gap19 (Genosphere Biotechnologies, Paris, France). For fractionated irradiation, cells were refreshed with 1.5 ml medium/well. […] Finally, the fluorescence was measured using an IncuCyte ZOOM® system (Essen BioScience, Ann Arbor, Mich., USA) by using different channels (TRITC, FITC and phase contrast) and a 10× objective Fluorescence signal was normalized to cell number.

TICAE cells = experiment: IGFBP-7 and GDF-15 multiplex-based assays, TICAE cells; assay type: cell-based, human; details: 7 d p.i.
Experimental: TICAE and TIME cells were seeded in a 6-well plate at a density of 2.5×10^5 cells/well in 5 to 6 biological replicates. Two to three days later, cells reached 100% confluence. At 30 minutes before X-ray exposure, cells were refreshed with medium with or without 100 μM TAT-Gap19 (Genosphere Biotechnologies, Paris, France). At 24 h, 48 h, 72 h and 7 d after irradiation, the supernatant was collected. Medium was changed only for the 7 d time point experiment at the fourth day with fresh medium alone or with medium supplemented with 100 μM TAT-Gap19. For the simultaneous detection of multiple cytokines in the supernatants, the Magnetic Luminex® Assay (R&D systems, Minneapolis, […]) was used following manufacturer's instructions. Briefly, supernatants, standards and microparticles were incubated into a 96-well plate which was pre-coated with cytokine-specific antibodies. The immobilized antibodies were able to bind the cytokines of interest after 2 h incubation, then the plate was washed and incubation with a biotinylated antibody cocktail specific to the cytokines of interest was performed for 1 h. A second wash was performed to remove the unbound biotinylated antibodies. Further, a streptavidin-phycoerythrin conjugate was added to each well to bind to the biotinylated antibodies. After a final wash, the microparticles were resuspended in buffer and read using the Luminex® MAGPIX Analyzer (R&D systems, Minneapolis, […]).

TIME cells = experiment: Cell death, Annexin V and Caspase 3/7 live cell imaging, TIME cells; assay type: cell-based, human
Experimental: TICAE and TIME cells were seeded in 96 well plates at a density of 10000 cells/well in 8 biological replicates. After three days, cells were at 100% confluence. At 30 minutes before X-ray exposure, cells were refreshed with 200 μl medium supplemented with Caspase 3/7 reagent (1:1000 dilution) and Annexin V reagent (1:200 dilution) (Essen Bioscience, United Kingdom) with or without 100 μM TAT-Gap19 (Genosphere Biotechnologies, Paris, France). Fluorescence signals were measured from 4 h until 100 h after irradiation by imaging every 2 hours using the IncuCyte ZOOM® system (Essen BioScience, Ann Arbor, Mich., USA). Different channels (TRITC, FITC and phase contrast) and a 10× objective were used. Spectral unmixing set as 8% of red removed from green was applied. The IncuCyte software's processing definition was set to recognize red (Annexin V) and green (Caspase 3/7) stained cells, making use of the Top-Hat background subtraction method. Fluorescence signal was normalized to cell count.

RBE4 cells = experiment: Irradiation-induced ATP release, RBE4 cells; assay type: cell-based, rat; details: broad-beam 1 Gy, 5 min post-irradiation, BAPTA-AM 10 μM, NALC 1 mM, c-PTIO 100 μM
Experimental: ATP was measured using a luciferin-luciferase assay kit (Sigma-Aldrich) in combination with a luminometer plate reader (Victor3 1420 multi label counter; Perkin Elmer, Zaventem, Belgium).
Extracellular ATP measurements were initially carried out at different time-points post-irradiation, the effect of blockers on ATP release was tested at the 5 min post-irradiation time-point (time of maximum ATP release).

T1 sequence (P17302 whole entry): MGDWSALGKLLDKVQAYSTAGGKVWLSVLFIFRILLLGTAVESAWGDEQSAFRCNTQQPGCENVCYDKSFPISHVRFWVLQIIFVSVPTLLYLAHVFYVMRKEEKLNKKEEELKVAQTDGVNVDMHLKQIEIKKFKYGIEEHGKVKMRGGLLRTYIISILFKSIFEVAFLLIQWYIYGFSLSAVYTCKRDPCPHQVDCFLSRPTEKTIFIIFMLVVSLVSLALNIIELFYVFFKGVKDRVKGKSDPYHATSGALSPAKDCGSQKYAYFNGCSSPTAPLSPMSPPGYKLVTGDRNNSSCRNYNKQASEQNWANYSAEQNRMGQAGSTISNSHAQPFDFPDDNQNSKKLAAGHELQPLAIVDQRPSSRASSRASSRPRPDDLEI

TAT-Gap19: connexin mimetic peptide, amino-acids 128-136 of the CL of Cx43 (SEQ ID NO: 2), Gap19 linked to TAT sequence; Cx43 hemichannel inhibitor (YGRKKRRQRRRKQIEIKKFK)
radiation-induced ATP release (Cx43 hemichannels [1]; 100 μM TAT-Gap19, fractionated irradiation 0.1 and 5 Gy, 72 h p.i.): significantly inhibited the 5 Gy responses only | radiation-induced ATP release (Cx43 hemichannels [1]; 100 μM TAT-Gap19, single 0.1 Gy, 1 h p.i.): no inhibition was observed | radiation-induced ATP release (Cx43 hemichannels [1]; 100 μM TAT-Gap19, single 0.1 and 5 Gy, 1, 6, 72 h p.i., most cases): significantly inhibited the radiation-induced ATP release | radiation-induced PI dye uptake (Cx43 hemichannels [2]; 100 μM TAT-Gap19, fractionated 5 Gy, 72 h): had no effect | radiation-induced PI dye uptake (Cx43 hemichannels [2]; 100 μM TAT-Gap19, single irradiation, 72 h p.i.): most clear and significant at the 72 h p.i. time point | GDF-15 (TICAE cells; 100 μM TAT-Gap19, 0, 0.1 and 5 Gy): significantly inhibited these responses in all treated conditions | IGFBP-7 (TICAE cells; 100 μM TAT-Gap19, 0.1 Gy): acted in a significantly inhibitory way | IGFBP-7 (radiation-induced increase) (TICAE cells; 100 μM TAT-Gap19, 5 Gy): not inhibited | Annexin V (TIME cells; 100 μM TAT-Gap19, 0 Gy, 12-24 h p.i. time window): transiently reduced Annexin V | Annexin V elevation (TIME cells; 100 μM TAT-Gap19, 5 Gy, 4-48 h p.i. time window): significantly reduced Annexin V elevation | irradiation-induced ATP release (RBE4 cells): inhibited
